Measurements taken from US7659271B2, “Pyrimidine compound having dibenzylamine structure and medicament comprising the same” (Kowa Company, Ltd., priority 2007, dated 2010).
Marks after values point to notes of the source that are not given here.

Experiments:
normal hamsters = assay: Measurement of blood HDL cholesterol increasing action in normal hamsters; format: in vivo, male Syrian Hamsters; details: for Average HDL cholesterol level ± SD: plasma 2 hours after administration on day 7, n = 5; for HDL cholesterol increasing ratio: relative to control group
Source text: N-{1-[3,5-Bis(trifluoromethyl)phenyl]ethyl}-N-({2-[(cyclopentylmethyl)(ethyl)amino]-5-(trifluoromethyl)phenyl}methyl)-5-[2-(methylsulfonyl)ethoxy]pyrimidin-2-amine (Example 3), or 4(S)-[(3,5-bis-trifluoromethylbenzyl)methoxycarbonylamino]-2(R)-ethyl-6-trifluoromethyl-3,4-dihydro-2H-quinoline-1-carboxylic acid ethyl ester (Torcetrapib) disclosed in International Patent Publication WO2000/17164 was suspended in a 5% Tween 80 solution (control vehicle), and then repeatedly administered to normal hamsters (male Syrian Hamsters) by oral administration once a day over 7 days by using a metal catheter. Two hours after the administration on day 7 of the administration, blood was collected, and plasma was obtained. Plasma lipoproteins were analyzed by automatic measurement using a HPLC system based on the postlabeling method according to the method described in J. Lipid. Res., 43, pp. 805-814. Specifically, 15 μL of a plasma sample was diluted 10 times with PBS containing 1 mM EDTA, and then injected in a volume of 80 μL into a gel filtration column (Superose 6 column, column size: 10×300 mm, GE Healthcare Bioscience) connected to a HPLC system (liquid feeding unit: Shimadzu LC-20A System, Shimadzu). Separation was performed by using PBS containing 1 mM EDTA as a running buffer at a flow rate of 0.5 mL/min and at a column temperature of 40° C. The eluate from the column was mixed with a cholesterol measurement reagent (Cholesterol E-Test Wako, Wako Pure Chemical Industries) at a flow rate of 0.25 mL/min, and the reaction was allowed in a reaction coil (0.5 mm×15 m) at 40° C. during the feeding. Cholesterols in the eluate from the reaction coil were detected at a wavelength of 600 nm. An area ratio of the HDL fraction relative to the total area of the obtained cholesterols was calculated, and HDL cholesterol level was calculated by multiplying the total cholesterol level measured beforehand using Cholesterol E Test Wako by the area ratio of the HDL fraction. Five normal hamsters grouped beforehand on the basis of the total plasma cholesterol level were used for each of the control group (control vehicle administration group) and the compound administration groups (groups administered with the compound of Example 3 at 10 mg/kg, 30 mg/kg and 100 mg/kg, and Torcetrapib at 10 mg/kg and 100 mg/kg).
The symbols * and *** used in FIG. 1 and Table 3 indicate presence of significant difference at a risk ratio lower than 5% (p<0.05) and a risk ratio lower than 0.1% (p<0.001), respectively, in a multi-group comparison test (Dunnett's multiple comparison test) performed between the control group and each compound administration group. Further, increasing ratios of HDL cholesterol level in each group relative to the control group were calculated as HDL cholesterol increasing ratios in accordance with the following equation 2, and indicated in terms of %. HDL cholesterol increasing ratio (%)=[(Average HDL cholesterol level of each compound administration group−Average HDL cholesterol level of control group)/Average HDL cholesterol level of control group]×100 (Equation 2)

CETP = biological target: T1, CETP (Homo sapiens, UniProt P11597); assay: Measurement of CETP inhibitory action in human plasma; format: biochemical; details: incubated with compound 37° C. 4 hours, Roar Biomedical CETP Activity kit, read-out: IC50 (concentration inhibiting the CETP activity by 50%)
T1 construct: The CETP activity in this plasma was measured with Cholesteryl Ester Transfer Protein Activity kit; from tissue; host or cells: human plasma
T1 sequence (P11597 18-493): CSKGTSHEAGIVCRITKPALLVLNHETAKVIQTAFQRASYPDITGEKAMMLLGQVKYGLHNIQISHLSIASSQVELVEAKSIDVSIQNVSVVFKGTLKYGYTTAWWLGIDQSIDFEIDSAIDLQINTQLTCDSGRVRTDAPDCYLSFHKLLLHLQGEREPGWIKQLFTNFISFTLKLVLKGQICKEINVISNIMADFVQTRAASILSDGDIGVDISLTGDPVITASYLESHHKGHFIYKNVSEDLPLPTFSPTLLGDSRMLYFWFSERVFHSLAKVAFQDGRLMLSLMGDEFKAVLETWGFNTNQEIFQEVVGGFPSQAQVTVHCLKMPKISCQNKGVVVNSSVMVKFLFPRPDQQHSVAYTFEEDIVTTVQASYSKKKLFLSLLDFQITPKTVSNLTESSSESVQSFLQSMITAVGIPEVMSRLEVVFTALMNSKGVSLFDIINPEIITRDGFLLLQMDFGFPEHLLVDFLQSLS
Experimental: A solution obtained by dissolving an exemplary compound in polyethylene glycol/N-methyl-2-pyrrolidone (vol/vol=1/1) was added to human plasma, and the mixture was incubated in an incubator at 37° C. for 4 hours. The CETP activity in this plasma was measured with Cholesteryl Ester Transfer Protein Activity kit (Roar Biomedical, catalog No.: RB-CETP). Specifically, to each well of a 96-well plate, 95 μL of a buffer (10 mM Tris, 150 mM NaCl, 2 mM EDTA, pH 7.4), 2 μL of Donor particle and 2 μL of Acceptor particle were added, 1 μL of the human plasma after the incubation was added to the mixture, and the mixture was incubated in an incubator at 37° C. for 2 hours. After completion of the incubation, fluorescence intensity (FLU) was measured with a fluorescence plate reader (excitation wavelength: 465 nm, emission wavelength: 535 nm). In accordance with the following equation 1, the CETP activity (% of control) was obtained for the compounds of the examples for two or more concentrations. CETP activity (% of control)=(Sample FLU−Blank FLU)×100/(Control FLU−Blank FLU) (Equation 1)
In the equation, the terms have the following meanings: […]
Blank FLU: Fluorescence intensity of sample not added with plasma
Control FLU: Fluorescence intensity of plasma not added with solution of compound
Sample FLU: Fluorescence intensity of plasma added with solution of compound
A value obtained by subtracting the value of the CETP activity from 100 was defined as the CETP inhibitory rate of each exemplary compound, and a concentration inhibiting the CETP activity by 50% (IC50) was calculated for each exemplary compound from the values of the CETP inhibitory rate at two or more concentrations.

[1] = 10 mg/kg oral once a day over 7 days
[2] = 100 mg/kg oral once a day over 7 days
[3] = 30 mg/kg oral once a day over 7 days

| IC50 (CETP) [µM] | SMILES | Average HDL cholesterol level ± SD (normal hamsters; [1]) | HDL cholesterol increasing ratio (normal hamsters; [1]) [%] | Average HDL cholesterol level ± SD (normal hamsters; [2]) | HDL cholesterol increasing ratio (normal hamsters; [2]) [%] | Average HDL cholesterol level ± SD (normal hamsters; [3]) | HDL cholesterol increasing ratio (normal hamsters; [3]) [%] |
| --- | --- | --- | --- | --- | --- | --- | --- |
| – | CCOC(=O)N1c2ccc(C(F)(F)F)cc2[C@@H](N(Cc2cc(C(F)(F)F)cc(C(F)(F)F)c2)C(=O)OC)C[C@H]1CC [Torcetrapib, 4(S)-[(3,5-bis-trifluoromethylbenzyl)methoxycarbonylamino]-2(R)-ethyl-6-trifluoromethyl-3,4-dihydro-2H-quinoline-1-carboxylic acid ethyl ester, reference compound] | 90.6 ± 7.7 mg/dL | 4.8 | 113.0 ± 23.2* mg/dl | 30.7 | – | – |
| 0.03 | CCN(CC1CCCC1)c1ccc(C(F)(F)F)cc1CN(c1ncc(OCCS(C)(=O)=O)cn1)C(C)c1cc(C(F)(F)F)cc(C(F)(F)F)c1 (centres unmarked) [Example 3, N-{1-[3,5-bis(trifluoromethyl)phenyl]ethyl}-N-({2-[(cyclopentylmethyl)(ethyl)amino]-5-(trifluoromethyl)phenyl}methyl)-5-[2-(methylsulfonyl)ethoxy]pyrimidin-2-amine] | 118.5 ± 7.6*** mg/dl | 37.1 | 126.9 ± 13.2*** mg/dl | 46.8 | 124.4 ± 8.4*** mg/dl | 43.9 |
